One assay has as its system LLC-MK2 cells. Nature of the assay: Cytotoxicity evaluation (mammalian cells), MTT assay. It is filed as cell-based. Conditions: Macaca mulatta, read-out: LLC-MK2 IC50. The method, then: (§1) The trypanocidal activity of the p-coumaric derivatives (1–12) were evaluated against epimastigotes and trypomastigote forms of T. cruzi (strain Y) at 24 h of incubation and in host LLC-MK2 cells at 24 h of exposure to different concentrations: 100; 50; 25; 12.5; 6.25; 3.12; and 1.56 μg/mL. In the MTT assay it was possible to calculate the IC50 of the tested substances through cell viability, which was calculated in relation to the negative control, whose absorbance was considered 100%.
For cell viability we used a standard MTT assay. LLC-MK2 cells were inoculated in DMEM medium, treated with different concentrations of p-coumaric derivatives and incubated at 37 °C for 24 h. MTT (Amresco, Solon, Ohio, USA; 5 mg/mL) was inserted and the cells were incubated for 4 h.
In the next procedure, formazan was solubilized in 10% sodium dodecyl sulfate (SDS; Vetec, São Paulo, Brazil). For cell viability analysis, a plate reader (Biochrom® Asys Expert Plus, CAMBRIGE, UK) with a wavelength of 570 nm was used. While in relative cell viability cells were calculated, which were treated with sterile PBS in triplicate for negative controls and experiments.
For orientation: Tetrazolium dyes change colour on reduction, which living cells bring about.

Assay [1] deals with T. cruzi epimastigote forms. Nature of the assay: Mitochondrial transmembrane potential, rhodamine 123 flow cytometry. In kind it is cell-based, Trypanosoma cruzi. Conditions: 5.164 and 10.329 μM, 24 h. The protocol: Mitochondrial transmembrane potential (ΔΨm) was assessed using rhodamine 123 fluorescent dye (Rho123).
Rhodamine 123 (Rho123) is a lipophilic and cationic dye that under normal conditions accumulates in the mitochondrial inter-membrane space. Presenting affinity with hydrogen ions, there is a reduction in the concentration of H^+ ions in the inter-membrane space, which decreases Rho123 accumulation, as illustrated in Figure 5. Changes in ΔΨm can be measured using Rho123, measuring the decrease in green fluorescence.
The compound 7 (5.164 and 10.329 μM) was added to the epimastigotes (10^6 cells) in 24-well plates. At 24 h of incubation, cells were transferred to tubes, centrifuged and washed with PBS. The cells were then re-suspended in 100 µL PBS, and 5 µL of Rho123 solution (200 µg/mL in absolute ethanol) was added to obtain a final concentration of 10 µg/mL. Samples were incubated in the dark for 30 min, washed twice with PBS, and re-suspended in PBS (500 µL/tube). Finally, the samples were analyzed using flow cytometry. Results were evaluated using relative fluorescent intensity, calculated as described in the previous item.
(In general: A flow cytometer gives signals particle by particle.)

Assay [2] deals with T. cruzi (strain Y) epimastigotes. Nature of the assay: Effect on T. cruzi epimastigote forms (24 h, Neubauer chamber count). It is filed as cell-based, Trypanosoma cruzi. The note with it: for trypanocidal activity (in words): epimastigote forms. The method, then:
as §1
Preparation of T. cruzi epimastigote was performed by cultivation in 96-well Y-staining plates at a density of 10^6 cells/mL, and using liver tryptose infusion with 10% fetal bovine serum (SFB) supplementation, and 1% antibiotic. They were then treated with p-coumaric derivatives. The grown parasites presenting inhibition were collected and quantified in a Neubauer chamber after incubation at 28 °C for 24 h. To determine relative viability, parasites treated only with sterile PBS medium were used as negative controls (viability of 100%), and experiments were performed in triplicate.

Assay [3] deals with T. cruzi epimastigote forms. Briefly: Cytoplasmic reactive oxygen species, DCFH-DA flow cytometry. It is filed as cell-based, Trypanosoma cruzi. The note with it: both treated groups (5.164 and 10.329 μM) vs control, 24 h. The protocol: The increased presence of reactive oxygen species (ROS) in the cytoplasm of compound 7 treated epimastigote cells was analyzed using the 2′,7′-dichlorofluorescein diacetate reagent (DCFH-DA). As a lipophilic molecule, when internalized in cells it is cleaved by cytoplasmic esterase into DCFH (reduced 2′-7′-dichlorofluorescein), and as it is unable to cross membranes DCFH reacts with intra-cytoplasmic ROSs producing DCF (oxidized 2′-7′-dichlorofluorescein). DCF emits green fluorescence, and the fluorescent intensity emitted by the cell is directly proportional to the intra-cytoplasmic ROS concentration.
A concentration of 10^6 epimastigotes/mL were placed in 24-well plates in the presence of BIS (5.164 and 10.329 μM). […] After 24 h of incubation with compound 7, the cells were harvested, centrifuged (2800 RPM for 7 min), washed with PBS twice, and re-suspended in 500 µL PBS. At the end, the cells were analyzed by flow cytometer.
In accordance with Kessler et al. (2013), the level of labeling in each group was assessed by the mean geometric fluorescence intensity. The results obtained were expressed as relative fluorescence intensity using the formula:(1) Relative fluorescence=mTEST/mCONTROL where: • mTEST = geometric mean of the group to be analyzed; • mCONTROL = geometric mean of the control group.

Assay [4] relates to T. cruzi epimastigote forms. Nature of the assay: Cell death profile, 7-AAD / annexin V-PE flow cytometry. In kind it is cell-based, Trypanosoma cruzi. Conditions: 5.164 and 10.329 μM, 24 h. The protocol: Epimastigote forms were used to assess the cell death profile using labeling with AxPE and 7-AAD. For data interpretation, the cells were divided into four cell populations: viable cells, with low levels of labeling for both fluorochromes (un-labeled); necrotic cells, labeled only with 7-AAD (7AAD +); apoptotic cells, labeled with annexin V-PE only (/ AxPE +); and doubly labeled late apoptotic cells (7AAD +/AxPE +).
Evaluation of the mechanism by which compound 7 induced cell death was performed using flow cytometry with 7-AAD (7-aminoactinomicyn D) and phycoerythrin-labeled Annexin V (AxPE) as fluorescent markers. 7-AAD is a molecule capable of specifically interleaving into DNA. However, it is not able to penetrate cells with intact membranes. Cells with high 7-AAD labeling are thus considered necrotic due to loss of membrane integrity. Annexin V is a 36 KDa protein that in the presence of calcium ions presents high affinity for phosphatidylserine. Thus, Ax/PE is used to evaluate external phosphatidylserine as a marker of apoptosis.
T. cruzi epimastigote forms were cultured at a density of 10^6 cells/mL in the presence of compound 7 (at concentrations of 5.164 and 10.329 μM) for 24 h in a BOD greenhouse. The cells were then transferred to cytometry tubes, centrifuged at 4000 RPM for 5 min, and washed with PBS once, and then washed twice with binding buffer (pH 7.4; 10 mM HEPES solution; 140 mM NaCl and 2.5 CaCl2 mM). After final centrifugation, the pellet was re-suspended in 100 µl binding buffer, 5 µl 7-AAD (0.5 mg/mL), and 5 µl Ax/PE. […] After 15 min of incubation in the dark, 400 µl of binding buffer was added to each tube and cells were analyzed on FACSCalibur (BD Biosciences, San José, Califórnia, EUA).
For each tube, a minimum of 10^4 cells were analyzed for quantitation of the percentage of unlabeled, and individually or double labeled 7-AAD and Ax/PE cells. […] Ax/PE labeled cells were read by an FL2 detector (563 at 606 nm, yellow fluorescence), while 7-AAD labeled cells were read at 615 to 645 nm wavelength (red fluorescence, FL3 detector).

The subject of assay [5] is T. cruzi (strain Y) trypomastigotes. Nature of the assay: Effect on T. cruzi trypomastigote forms (24 h). It is filed as cell-based. The note with it: Trypanosoma cruzi, read-out: Y strain (Tripomastigotes) IC50. The protocol:
as §1
Acquisition of T. cruzi trypomastigotes was by infection of LLCMK2 cells using trypomastigotes in T-25/75cm^2 containers at 37 °C with 5% CO2 atmosphere in DMEM (Vitrocell, São Paulo, Brazil) and supplementation of 1% antibiotics and 2% SFB for 24 h. Then the trypomastigotes were plated and treated with p-coumaric acid derivatives. Cell viability was counted after 24 h of incubation at 37 °C. LC50 was obtained. While relative cell viability was calculated using sterile PBS-treated cells for both negative controls and experiments, all in triplicate.

The next assay deals with Trypanosoma brucei. Set-up: method as in Steverding et al. (2016) [47]. The note with it: ref Steverding et al. (2016) [47]; cited from earlier work.
A further assay deals with T. cruzi amastigotes. Further details: method as in Lima et al. (2015) [41]. The note with it: ref Lima et al. (2015) [41]; read-out: activity against T. cruzi amastigotes; cited from earlier work.
Where [6] appears, read: Trypanosoma cruzi, 24 h, read-out: Y strain (Epimastigotes) IC50, 24 h incubation.

The structures appear in SMILES notation. Like-named read-outs stand apart in the source and are kept apart here. A value given as a limit tells only on which side of the number the result lay.

Turning to `CCCCCOC(=O)/C=C/c1ccc(O)cc1` [compound 7, pentyl p-coumarate], the IC50 in the assay with LLC-MK2 cells (LLC-MK2, 24 h) was 123 ± 22.6 µM. Further, the “rhodamine 123 accumulation (mitochondrial transmembrane potential)” value in assay [1] was “reduction”. In addition, the IC50 in assay [2] (setting [6]) was 5.16 ± 1.28 µM. Besides, in assay [2], the “trypanocidal activity (in words)” value is reported as “good trypanocidal activity”. The “relative fluorescence (DCF, reactive oxygen species)” value in assay [3] is listed as “increase”. Also, in assay [4], the cell death profile result was “cell death by necrosis”, the “percentage of 7-AAD-labeled cells” value is “increase” and the “percentage of viable cells” value was “reduction”. For the same compound, the IC50 in assay [5] was determined as 61.6 ± 28.6 µM.
As to `COC(=O)/C=C/c1ccc(O)cc1` [compound 1, (E)-Methyl 3-(4-hydroxyphenyl)acrylate], the IC50 in the assay on LLC-MK2 cells (LLC-MK2, 24 h exposure, MTT) is > 561 µM; in assay [2] (Trypanosoma cruzi, 24 h incubation, read-out: Y strain (Epimastigotes) IC50) it was 601 ± 249 µM.
With `CC(C)c1ccc(COC(=O)/C=C/c2ccc(O)cc2)cc1` [compound 12], the IC50 with LLC-MK2 cells (LLC-MK2, 24 h) is 2.74 µM; in assay [2] (setting [6]), 68.9 ± 18.1 µM; in assay [2] (read-out: Y strain (Epimastigotes) IC50, 24 h incubation), 40.1 ± 10.1 µM. Besides, the “trypanocidal activity (in words)” value in assay [2] is given as “did not show significant trypanocidal activity”.
Consider `CCCCCCCCCCCCOC(=O)/C=C/c1ccc(O)cc1` [compound 10], for which the IC50 with LLC-MK2 cells (LLC-MK2, 24 h) worked out at 141 ± 15.2 µM; in assay [2] (setting [6]), 50.6 ± 18.9 µM.
`Cc1ccc(COC(=O)/C=C/c2ccc(O)cc2)cc1` [compound 11]: the IC50 worked out at 160 ± 97.6 µM with LLC-MK2 cells (LLC-MK2, 24 h) and 75.5 ± 13.4 µM in assay [2] (setting [6]). Moreover, the “trypanocidal activity (in words)” value in assay [2] is “did not show significant trypanocidal activity”.
`CC(C)CCOC(=O)/C=C/c1ccc(O)c(O)c1` [isopentyl caffeate]: the “effect on parasite growth” value with Trypanosoma brucei is “inhibited parasite growth”.
Turning to `CCCCCCOC(=O)/C=C/c1ccc(O)cc1` [compound 9], the IC50 stood at 131 ± 16.9 µM with LLC-MK2 cells (LLC-MK2, 24 h) and 68.9 ± 18.1 µM in assay [2] (setting [6]).
For `CC(C)OC(=O)/C=C/c1ccc(O)cc1` [compound 4], in that order: 290 ± 49 µM and 335 ± 54.3 µM.
For the compound `CCCOC(=O)/C=C/c1ccc(O)cc1` [compound 3, Propyl p-coumarate], the IC50 in the assay with LLC-MK2 cells (LLC-MK2, 24 h) is 446 ± 187 µM; in assay [2] (setting [6]), 16.8 ± 1.93 µM; in assay [5] it was 117 ± 59.1 µM. In assay [2], the “trypanocidal activity (in words)” value is “good trypanocidal activity”.
As to `CCOC(=O)/C=C/c1ccc(O)cc1` [compound 2], the IC50 amounted to 443 ± 109 µM in the assay with LLC-MK2 cells (LLC-MK2, 24 h) and 216 ± 109 µM in assay [2] (setting [6]).
On to `COCCOC(=O)/C=C/c1ccc(O)cc1` [compound 5, 2-methoxyethyl p-coumarate], for which the IC50 in the assay with LLC-MK2 cells (LLC-MK2, 24 h) is > 450 µM; in assay [2] (setting [6]) it was 32 ± 5.39 µM; in assay [5] it was 360 ± 112 µM. In addition, in assay [2], the “trypanocidal activity (in words)” value was “good trypanocidal activity”.
With `CCCCOC(=O)/C=C/c1ccc(O)cc1` [compound 6], the IC50 with LLC-MK2 cells (LLC-MK2, 24 h) was 274 ± 46.8 µM; in assay [2] (setting [6]), 155 ± 33.1 µM.
`CC(C)CCOC(=O)/C=C/c1ccc(O)cc1` [compound 8, isopentyl p-coumarate]: the IC50 in the assay with LLC-MK2 cells (LLC-MK2, 24 h) turned out to be 120 ± 19.2 µM; in assay [2] (setting [6]) it was 13.2 ± 2.56 µM; in assay [5], 111 ± 38.7 µM. Besides, the “trypanocidal activity (in words)” value in assay [2] is reported as “good trypanocidal activity”.
With `CCOC(=O)/C=C/c1ccc(O)c(O)c1` [ethyl caffeate], the IC50 in the assay with T. cruzi amastigotes is 18.3 µM.

The values are drawn from paper PMC6928761, “Trypanocidal Mechanism of Action and in silico Studies of p-Coumaric Acid Derivatives” (International Journal of Molecular Sciences, 2019).
